Assay results taken from PMC8800111 (The Journal of Biological Chemistry, 2021).

Columns and labels:
Assay type in all cases: cell-based
[1] = biological target: proteins of U3A human fibrosarcoma cells (4462 proteins detected) (Homo sapiens, UniProt Q7Z6B0); conditions: protein CCDC91, U3A cells
[2] = biological target: proteins of U3A human fibrosarcoma cells (4462 proteins detected) (Homo sapiens, UniProt Q96D46); conditions: protein NMD3; soluble abundance after heat, U3A cells
[3] = biological target: proteins of U3A human fibrosarcoma cells (4462 proteins detected) (Homo sapiens, UniProt O00764); conditions: protein PDXK, U3A cells
[4] = biological target: proteins of U3A human fibrosarcoma cells (4462 proteins detected) (Homo sapiens, UniProt Q96SB8); conditions: protein SMC6; U3A cells
proteins of U3A human fibrosarcoma cells (4462 proteins detected) (Homo sapiens, UniProt Q96SB8), sequence (Q96SB8 whole entry): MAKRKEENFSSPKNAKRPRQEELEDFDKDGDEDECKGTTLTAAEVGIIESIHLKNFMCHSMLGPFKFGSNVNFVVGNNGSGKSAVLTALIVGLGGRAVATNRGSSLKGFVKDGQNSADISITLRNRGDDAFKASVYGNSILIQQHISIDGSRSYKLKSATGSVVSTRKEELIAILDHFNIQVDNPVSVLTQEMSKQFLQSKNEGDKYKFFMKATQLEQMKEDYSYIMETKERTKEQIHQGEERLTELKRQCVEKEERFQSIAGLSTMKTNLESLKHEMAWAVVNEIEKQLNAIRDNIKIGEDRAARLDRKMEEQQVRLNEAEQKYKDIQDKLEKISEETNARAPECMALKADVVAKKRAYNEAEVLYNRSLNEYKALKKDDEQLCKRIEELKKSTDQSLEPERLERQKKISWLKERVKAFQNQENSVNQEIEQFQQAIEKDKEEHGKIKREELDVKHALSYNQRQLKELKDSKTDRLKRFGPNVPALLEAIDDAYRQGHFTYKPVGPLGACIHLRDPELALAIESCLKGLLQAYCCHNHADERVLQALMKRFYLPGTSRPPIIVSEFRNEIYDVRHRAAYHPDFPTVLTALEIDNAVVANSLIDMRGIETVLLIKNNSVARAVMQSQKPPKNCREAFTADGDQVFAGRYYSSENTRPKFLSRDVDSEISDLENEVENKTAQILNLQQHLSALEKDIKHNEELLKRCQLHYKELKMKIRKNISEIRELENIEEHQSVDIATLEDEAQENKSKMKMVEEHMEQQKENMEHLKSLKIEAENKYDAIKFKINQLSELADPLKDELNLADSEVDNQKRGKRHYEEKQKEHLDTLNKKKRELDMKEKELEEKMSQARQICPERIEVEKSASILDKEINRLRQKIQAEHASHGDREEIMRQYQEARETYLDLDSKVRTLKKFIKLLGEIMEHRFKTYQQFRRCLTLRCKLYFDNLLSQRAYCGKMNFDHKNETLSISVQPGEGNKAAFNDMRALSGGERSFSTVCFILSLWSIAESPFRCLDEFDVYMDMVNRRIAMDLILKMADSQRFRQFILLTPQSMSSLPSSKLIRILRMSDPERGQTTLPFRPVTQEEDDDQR

[5] = biological target: proteins of U3A human fibrosarcoma cells (4462 proteins detected) (Homo sapiens, UniProt Q495W5); conditions: protein FUT11; U3A cells
[6] = biological target: proteins of U3A human fibrosarcoma cells (4462 proteins detected) (Homo sapiens, UniProt P38432); conditions: protein COIL; soluble abundance after heat, U3A cells
proteins of U3A human fibrosarcoma cells (4462 proteins detected) (Homo sapiens, UniProt P38432), sequence (P38432 whole entry): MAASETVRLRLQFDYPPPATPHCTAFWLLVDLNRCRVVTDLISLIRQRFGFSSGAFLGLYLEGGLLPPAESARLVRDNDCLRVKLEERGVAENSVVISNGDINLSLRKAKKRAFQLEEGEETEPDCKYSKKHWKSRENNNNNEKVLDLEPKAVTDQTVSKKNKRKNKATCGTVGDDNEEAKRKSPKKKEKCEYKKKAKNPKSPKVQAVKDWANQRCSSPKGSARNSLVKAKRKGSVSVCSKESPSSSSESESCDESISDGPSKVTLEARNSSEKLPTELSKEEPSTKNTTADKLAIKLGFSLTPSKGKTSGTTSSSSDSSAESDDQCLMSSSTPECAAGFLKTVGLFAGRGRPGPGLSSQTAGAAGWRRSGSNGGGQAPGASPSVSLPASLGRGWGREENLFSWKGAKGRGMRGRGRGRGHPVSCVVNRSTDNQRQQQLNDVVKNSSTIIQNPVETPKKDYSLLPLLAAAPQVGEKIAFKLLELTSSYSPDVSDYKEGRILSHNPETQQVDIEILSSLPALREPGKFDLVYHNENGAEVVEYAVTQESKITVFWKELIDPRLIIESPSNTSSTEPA

[7] = biological target: proteins of U3A human fibrosarcoma cells (4462 proteins detected) (Homo sapiens, UniProt Q969Z0); conditions: protein TBRG4; U3A cells
[8] = biological target: proteins of U3A human fibrosarcoma cells (4462 proteins detected) (Homo sapiens, UniProt Q7L5N1); conditions: protein COPS6; U3A cells
[9] = biological target: proteins of U3A human fibrosarcoma cells (4462 proteins detected) (Homo sapiens, UniProt P13489); conditions: protein RNH1; U3A cells
proteins of U3A human fibrosarcoma cells (4462 proteins detected) (Homo sapiens, UniProt P13489), sequence (P13489 whole entry): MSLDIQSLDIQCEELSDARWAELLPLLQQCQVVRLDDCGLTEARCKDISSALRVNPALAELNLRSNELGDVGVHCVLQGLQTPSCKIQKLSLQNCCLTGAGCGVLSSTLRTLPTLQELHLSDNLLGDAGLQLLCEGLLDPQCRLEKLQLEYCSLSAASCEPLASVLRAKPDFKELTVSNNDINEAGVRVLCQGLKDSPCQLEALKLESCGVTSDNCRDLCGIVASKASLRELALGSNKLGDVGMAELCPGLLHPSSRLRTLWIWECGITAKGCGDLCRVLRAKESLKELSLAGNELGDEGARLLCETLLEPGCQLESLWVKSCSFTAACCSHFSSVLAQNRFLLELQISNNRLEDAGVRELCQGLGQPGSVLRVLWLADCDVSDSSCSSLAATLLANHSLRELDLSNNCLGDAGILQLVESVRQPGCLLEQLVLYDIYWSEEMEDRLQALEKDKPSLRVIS

[10] = biological target: proteins of U3A human fibrosarcoma cells (4462 proteins detected) (Homo sapiens, UniProt Q9BZE1); conditions: protein MRPL37; U3A, 10 μM, 2 h
[11] = biological target: proteins of U3A human fibrosarcoma cells (4462 proteins detected) (Homo sapiens, UniProt Q00765); conditions: protein REEP5; U3A cells
proteins of U3A human fibrosarcoma cells (4462 proteins detected) (Homo sapiens, UniProt Q00765), sequence (Q00765 whole entry): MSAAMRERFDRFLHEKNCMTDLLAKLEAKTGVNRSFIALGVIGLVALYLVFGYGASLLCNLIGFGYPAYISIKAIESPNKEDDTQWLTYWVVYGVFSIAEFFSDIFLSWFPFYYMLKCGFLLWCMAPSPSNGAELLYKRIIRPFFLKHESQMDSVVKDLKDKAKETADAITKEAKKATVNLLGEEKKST

[12] = biological target: proteins of U3A human fibrosarcoma cells (4462 proteins detected) (Homo sapiens, UniProt P36543); conditions: protein ATP6V1E1; soluble abundance after heat, U3A cells
proteins of U3A human fibrosarcoma cells (4462 proteins detected) (Homo sapiens, UniProt P36543), sequence (P36543 whole entry): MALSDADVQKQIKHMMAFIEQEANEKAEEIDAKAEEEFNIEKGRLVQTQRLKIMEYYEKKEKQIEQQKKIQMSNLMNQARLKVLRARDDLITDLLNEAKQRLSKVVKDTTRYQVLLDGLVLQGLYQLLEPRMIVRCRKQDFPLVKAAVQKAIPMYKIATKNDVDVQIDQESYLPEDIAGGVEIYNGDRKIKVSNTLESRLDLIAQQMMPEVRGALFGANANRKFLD

[13] = biological target: proteins of U3A human fibrosarcoma cells (4462 proteins detected) (Homo sapiens, UniProt Q92973); conditions: protein TNPO1; U3A cells
[14] = biological target: proteins of U3A human fibrosarcoma cells (4462 proteins detected) (Homo sapiens, UniProt P56277); conditions: protein CMC4; U3A, 10 μM, 2 h
proteins of U3A human fibrosarcoma cells (4462 proteins detected) (Homo sapiens, UniProt P56277), sequence (P56277 whole entry): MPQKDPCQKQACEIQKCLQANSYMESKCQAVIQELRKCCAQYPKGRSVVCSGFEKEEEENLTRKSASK

[15] = biological target: proteins of U3A human fibrosarcoma cells (4462 proteins detected) (Homo sapiens, UniProt Q8NBJ4); conditions: protein GOLM1; U3A, 10 μM, 2 h
[16] = biological target: proteins of U3A human fibrosarcoma cells (4462 proteins detected) (Homo sapiens, UniProt O75533); conditions: protein SF3B1; U3A cells
proteins of U3A human fibrosarcoma cells (4462 proteins detected) (Homo sapiens, UniProt O75533), sequence (O75533 whole entry): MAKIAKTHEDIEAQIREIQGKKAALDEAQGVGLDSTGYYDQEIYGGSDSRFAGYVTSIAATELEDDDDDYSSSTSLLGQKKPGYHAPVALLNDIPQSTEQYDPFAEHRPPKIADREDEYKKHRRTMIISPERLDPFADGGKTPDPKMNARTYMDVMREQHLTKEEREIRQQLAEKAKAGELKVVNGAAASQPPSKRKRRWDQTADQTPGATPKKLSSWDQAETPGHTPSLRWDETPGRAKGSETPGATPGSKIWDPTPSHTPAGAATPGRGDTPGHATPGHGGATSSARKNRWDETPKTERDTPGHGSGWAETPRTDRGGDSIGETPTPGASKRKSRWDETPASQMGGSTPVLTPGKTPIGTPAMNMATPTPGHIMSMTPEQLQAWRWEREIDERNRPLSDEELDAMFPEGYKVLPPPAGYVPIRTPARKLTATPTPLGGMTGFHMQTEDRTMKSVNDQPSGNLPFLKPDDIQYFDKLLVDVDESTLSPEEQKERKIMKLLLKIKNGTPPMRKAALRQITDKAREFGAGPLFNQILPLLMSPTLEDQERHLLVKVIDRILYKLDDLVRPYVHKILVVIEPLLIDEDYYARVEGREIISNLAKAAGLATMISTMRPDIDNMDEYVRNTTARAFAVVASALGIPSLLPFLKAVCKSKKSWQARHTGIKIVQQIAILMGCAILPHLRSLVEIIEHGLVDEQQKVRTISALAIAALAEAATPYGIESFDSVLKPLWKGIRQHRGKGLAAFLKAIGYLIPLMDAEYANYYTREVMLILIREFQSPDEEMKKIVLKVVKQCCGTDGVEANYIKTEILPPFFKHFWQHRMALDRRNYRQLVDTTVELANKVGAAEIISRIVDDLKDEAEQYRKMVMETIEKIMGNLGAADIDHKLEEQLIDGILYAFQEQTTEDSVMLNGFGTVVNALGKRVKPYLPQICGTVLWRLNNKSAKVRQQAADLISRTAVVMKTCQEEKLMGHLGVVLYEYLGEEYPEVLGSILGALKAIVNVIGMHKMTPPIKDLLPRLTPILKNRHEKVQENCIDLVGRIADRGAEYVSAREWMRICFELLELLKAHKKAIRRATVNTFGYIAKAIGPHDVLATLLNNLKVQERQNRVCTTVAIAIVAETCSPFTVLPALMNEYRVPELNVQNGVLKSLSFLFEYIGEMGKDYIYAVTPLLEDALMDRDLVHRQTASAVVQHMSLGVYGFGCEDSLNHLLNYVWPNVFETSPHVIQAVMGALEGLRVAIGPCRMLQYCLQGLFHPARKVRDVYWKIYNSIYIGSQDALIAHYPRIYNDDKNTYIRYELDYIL

[17] = biological target: proteins of U3A human fibrosarcoma cells (4462 proteins detected) (Homo sapiens, UniProt P39748); conditions: protein FEN1; U3A, 10 μM, 2 h
[18] = biological target: proteins of U3A human fibrosarcoma cells (4462 proteins detected) (Homo sapiens, UniProt P30519); conditions: protein HMOX2; U3A, 10 μM, 2 h
[19] = biological target: proteins of U3A human fibrosarcoma cells (4462 proteins detected) (Homo sapiens, UniProt O14976); conditions: protein GAK; U3A, 10 μM, 2 h
[20] = biological target: proteins of U3A human fibrosarcoma cells (4462 proteins detected) (Homo sapiens, UniProt Q9ULX3); conditions: protein NOB1; U3A cells
[21] = biological target: proteins of U3A human fibrosarcoma cells (4462 proteins detected) (Homo sapiens, UniProt Q9Y221); conditions: protein NIP7; soluble abundance after heat, U3A cells
[22] = biological target: proteins of U3A human fibrosarcoma cells (4462 proteins detected) (Homo sapiens, UniProt Q13620); conditions: protein CUL4B; U3A cells
proteins of U3A human fibrosarcoma cells (4462 proteins detected) (Homo sapiens, UniProt Q13620), sequence (Q13620 whole entry): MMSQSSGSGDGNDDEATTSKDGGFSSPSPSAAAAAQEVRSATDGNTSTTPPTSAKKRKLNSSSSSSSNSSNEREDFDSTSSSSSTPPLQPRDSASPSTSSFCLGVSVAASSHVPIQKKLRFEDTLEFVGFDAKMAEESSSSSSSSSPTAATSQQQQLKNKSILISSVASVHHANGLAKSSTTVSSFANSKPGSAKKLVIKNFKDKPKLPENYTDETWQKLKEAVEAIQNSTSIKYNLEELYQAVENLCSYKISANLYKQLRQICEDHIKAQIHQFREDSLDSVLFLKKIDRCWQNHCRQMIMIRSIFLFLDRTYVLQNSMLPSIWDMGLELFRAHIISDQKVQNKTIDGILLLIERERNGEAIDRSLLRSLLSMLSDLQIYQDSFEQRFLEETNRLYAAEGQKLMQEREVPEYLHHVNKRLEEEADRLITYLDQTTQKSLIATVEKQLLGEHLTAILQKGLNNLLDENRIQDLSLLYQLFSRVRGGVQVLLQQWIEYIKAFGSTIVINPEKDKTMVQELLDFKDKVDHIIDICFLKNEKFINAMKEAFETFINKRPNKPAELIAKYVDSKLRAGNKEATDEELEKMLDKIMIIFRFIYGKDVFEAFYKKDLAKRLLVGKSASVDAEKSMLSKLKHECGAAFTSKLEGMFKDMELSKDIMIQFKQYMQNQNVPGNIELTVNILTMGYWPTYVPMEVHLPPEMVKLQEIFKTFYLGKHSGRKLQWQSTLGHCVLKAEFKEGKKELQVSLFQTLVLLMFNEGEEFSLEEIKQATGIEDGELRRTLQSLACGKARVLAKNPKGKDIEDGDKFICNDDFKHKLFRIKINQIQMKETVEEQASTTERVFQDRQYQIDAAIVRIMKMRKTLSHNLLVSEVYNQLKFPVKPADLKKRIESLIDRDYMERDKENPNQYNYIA

[23] = biological target: proteins of U3A human fibrosarcoma cells (4462 proteins detected) (Homo sapiens, UniProt P13693); conditions: protein TPT1, U3A cells
[24] = biological target: proteins of U3A human fibrosarcoma cells (4462 proteins detected) (Homo sapiens, UniProt Q9H832); conditions: protein UBE2Z; U3A, 10 μM, 2 h
[25] = biological target: proteins of U3A human fibrosarcoma cells (4462 proteins detected) (Homo sapiens, UniProt Q13217); conditions: protein DNAJC3; soluble abundance after heat, U3A cells
[26] = biological target: proteins of U3A human fibrosarcoma cells (4462 proteins detected) (Homo sapiens, UniProt Q96TC7); conditions: protein RMDN3; U3A cells
[27] = biological target: proteins of U3A human fibrosarcoma cells (4462 proteins detected) (Homo sapiens, UniProt Q03188); conditions: protein CENPC, U3A cells
[28] = biological target: proteins of U3A human fibrosarcoma cells (4462 proteins detected) (Homo sapiens, UniProt Q8WXD5); conditions: protein GEMIN6, U3A cells
proteins of U3A human fibrosarcoma cells (4462 proteins detected) (Homo sapiens, UniProt Q8WXD5), sequence (Q8WXD5 whole entry): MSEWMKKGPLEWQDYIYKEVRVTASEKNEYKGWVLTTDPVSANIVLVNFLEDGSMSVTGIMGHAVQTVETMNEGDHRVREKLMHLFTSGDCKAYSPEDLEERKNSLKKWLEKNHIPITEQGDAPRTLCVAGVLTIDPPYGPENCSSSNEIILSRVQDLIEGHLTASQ

[29] = biological target: proteins of U3A human fibrosarcoma cells (4462 proteins detected) (Homo sapiens, UniProt Q9NNW5); conditions: protein WDR6, U3A cells
[30] = biological target: proteins of U3A human fibrosarcoma cells (4462 proteins detected) (Homo sapiens, UniProt O15164); conditions: protein TRIM24; U3A cells

SMILES: CCc1nc(N)nc(N)c1-c1ccc(Cl)cc1 [pyrimethamine]
- Log2 (PYR/DMSO) [1]: -0.04
- Log2 (PYR/DMSO) [2]: 0.13
- Log2 (PYR/DMSO) [3]: -0.05
- Log2 (PYR/DMSO) [4]: 0.18
- Log2 (PYR/DMSO) [5]: 0.17
- Log2 (PYR/DMSO) [6]: 0.15
- Log2 (PYR/DMSO) [7]: 0.19
- Log2 (PYR/DMSO) [8]: 0.16
- Log2 (PYR/DMSO) [9]: 0.18
- Log2 (PYR/DMSO), MRPL37 [10]: 0.29
- Log2 (PYR/DMSO) [11]: 0.19
- Log2 (PYR/DMSO) [12]: 0.14
- Log2 (PYR/DMSO) [13]: 0.22
- Log2 (PYR/DMSO), CMC4 [14]: 0.24
- Log2 (PYR/DMSO), GOLM1 [15]: -0.22
- Log2 (PYR/DMSO) [16]: 0.16
- Log2 (PYR/DMSO), FEN1 [17]: 0.23
- Log2 (PYR/DMSO), HMOX2 [18]: 0.25
- Log2 (PYR/DMSO), GAK [19]: -0.20
- Log2 (PYR/DMSO) [20]: 0.15
- Log2 (PYR/DMSO) [21]: 0.14
- Log2 (PYR/DMSO) [22]: 0.18
- Log2 (PYR/DMSO) [23]: -0.05
- Log2 (PYR/DMSO), UBE2Z [24]: 0.25
- Log2 (PYR/DMSO) [25]: 0.14
- Log2 (PYR/DMSO) [26]: 0.15
- Log2 (PYR/DMSO) [27]: -0.04
- Log2 (PYR/DMSO) [28]: -0.04
- Log2 (PYR/DMSO) [29]: -0.04
- Log2 (PYR/DMSO) [30]: 0.16
